Experimental data from patent publication US8957071B2, “Treatment of vascular, autoimmune and inflammatory diseases using low dosages of IMPDH inhibitors” (Aspreva Pharmaceuticals S.A., priority 2005, dated 2015).

What was measured:
[1] = Serum mycophenolic acid levels in Ldlr−/− mice by commercial assay; assay type: in vivo
Protocol: (§1) Diet W will be formulated with CellCept® incorporated directly into the chow, at concentrations of 0.04%, 0.08% or 0.26% mycophenolate mofetil by weight. When administered in this way, the mice will be expected to consume 15 mg/kg/day (“low dose”), 30 mg/kg/day (“low dose”), or 100 mg/kg/day (“high-dose”) of the drug. Mice will be sacrificed 12 weeks after feeding on the study diet, and the endpoints determined.
No MPA was detected in the serum of control mice (data not shown).

male Ldlr−/− mice [2] = assay: Atherosclerosis in Ldlr−/− (LDLRKO) mice on Western-type diet: percentage of aortic sinus occluded by plaque; assay type: in vivo; conditions: 12 weeks; for reduction of atherosclerosis (AS): male Ldlr−/− mice; for percentage of aortic sinus occluded by plaque: control 16%
Excerpt: (§2) This example illustrates the effect of low-dose MMF on mice lacking the low-density lipoprotein receptor B6.129S7-Ldlrtm1Her/J (hereinafter referred to as LDLRKO mice) obtained from Jackson Labs. When placed on a high-fat, high-cholesterol “Western-type” diet, these mice develop severe atherosclerosis (Ishibashi et al., 1994, J Clin Invest. 93(5):1885-93).
as §1
The primary endpoint will be evaluated using histological analysis of plaque area at the aortic root. The total lesion area in oil red O-stained cryostat sections of the aortic root is quantified using a Leica image analysis system. Mean lesion area (as a percentage of aortic cross-sectional area) is calculated from 10 oil red O-stained sections, beginning at the appearance of the tricuspid valves.
(§3) Plaque composition is analysed as a secondary endpoint using oil red O staining (for lipid content—see above), Movat's pentachrome staining (for lesion complexity including extracellular matrix and glycosaminoglycans), and haematoxylin and eosin (for macrophage content). The average atherosclerotic area is compared between the groups using the two-way ANOVA test. Additional secondary endpoints will be plasma levels of total cholesterol, HDL cholesterol, LDL cholesterol, triglycerides, and glucose, as well as en face visualization of the thoracic and abdominal aortas stained with oil red O.
Low-dose therapy (15 mg/kg/day, a dosage equivalent to approximately 1 gram per day in a 70 kg human) reduced AS by 31% (from 16% to 11% of the sinus) whereas high-dose therapy reduced AS by 61% (from 16% to 6.2%). The response was dose-dependent. Quantification was performed by a single, trained observer blinded to treatment group.

male Ldlr−/− mice [3] = assay: Serum lipids (triglycerides, phospholipids, HDL) in Ldlr−/− mice on Western-type diet; assay type: in vivo; conditions: for serum phospholipid (PPL) levels: control 1078+91 mg/dL; for serum triglyceride (Tgs) levels: control 1198+137 mg/dL
Excerpt: as §2, §1, §3
The response was dose-dependent. Quantification was performed by a single, trained observer blinded to treatment group. Mouse groups are the same as for FIG. 1.
Importantly, levels of serum HDL-cholesterol are not lowered by MMF treatment. Quantification was performed by a single, trained observer blinded to treatment group. Mouse groups are the same as for FIG. 1.

[4] = test system: male New Zealand White (NZW) rabbits; assay: High-cholesterol New Zealand White rabbit model of atherogenesis (Example 2); assay type: in vivo; conditions: 1 or 5 mg/kg by gastric gavage daily, 12 weeks
Protocol: This example illustrates the use of low dose MMF in the treatment of a rabbit model of atherogenesis.
Study Design: Studies are done in 30 male New Zealand White (NZW) rabbits weighing 1.0-1.5 kg at the beginning of the experiment. After obtaining baseline blood samples, rabbits are fed ad libitum a 1% cholesterol diet for 12 weeks. This diet is prepared by dissolving cholesterol (Sigma, St. Louis, Mo.) in 100% ethanol at a temperature of 60° C., mixing this solution with standard rabbit chow (Purina), and allowing the complete evaporation of the ethanol.
The rabbits are divided into three groups and treated as follows: (1) CHOL+MMF (extra-low) group (n=10) receives by gastric gavage 5 mg/kg of MMF in 0.4 ml of water; (2) CHOL+MMF (ultra-low) group (n=10) receives by gastric gavage 1 mg/kg of MMF in 0.4 ml of water; and (3) CHOL group (n=10) receives by the same route daily 0.4 ml of water. […] The MMF and vehicle are given daily throughout the 12 experimental weeks.
Blood samples for determination of plasma cholesterol and triglyceride are taken every 2 weeks. […]
Determination of aortic cholesterol content: Lipids are isolated from the aortic segments as described by Folch et al., 1957, J Biol Chem. […]:497-509. […] Cholesterol is determined in the lipid extract by the method of Zlatikis et al., 1953, J Lab Clin Med. 1:486-492. […]

[5] = cited from earlier work
rabbits = conditions: 30 mg/kg/day; cited from earlier work
[6] = high-dose (100 mg/kg/day) in chow

SMILES: COc1c(C)c2c(c(O)c1C/C=C(\C)CCC(=O)O)C(=O)OC2 [MPA, mycophenolic acid]
- average serum mycophenolic acid (MPA) level ([1]; high-dose group (MMF 100 mg/kg/day in chow)): 3.65 ± 0.3 mg/L
- average serum mycophenolic acid (MPA) level ([1]; low-dose group (MMF 15 mg/kg/day in chow)): 1.16 ± 0.09 mg/L

SMILES: COc1c(C)c2c(c(O)c1C/C=C(\C)CCC(=O)OCCN1CCOCC1)C(=O)OC2 [mycophenolate mofetil, morpholinoethyl E-6-(1,3-dihydro-4-hydroxy-6-methoxy-7-methyl-3-oxo-5-isobenzofuranyl)-4-methyl-4-hexenoate]
- reduction of atherosclerosis (AS) (male Ldlr−/− mice [2]; [6]): 61%
- percentage of aortic sinus occluded by plaque (male Ldlr−/− mice [2]; [6]): 6.2%
- reduction of atherosclerosis (AS) (male Ldlr−/− mice [2]; low-dose 15 mg/kg/day in chow): 31%
- percentage of aortic sinus occluded by plaque (male Ldlr−/− mice [2]; low-dose 15 mg/kg/day in chow): 11 % of the sinus
- serum phospholipid (PPL) levels (male Ldlr−/− mice [3]; high-dose (100 mg/kg/day)): 696+115 mg/dL
- serum triglyceride (Tgs) levels (male Ldlr−/− mice [3]; high-dose (100 mg/kg/day)): 452+80 mg/dL
- serum phospholipid (PPL) levels (male Ldlr−/− mice [3]; low-dose 15 mg/kg/day): 964+87 mg/dL
- serum triglyceride (Tgs) levels (male Ldlr−/− mice [3]; low-dose 15 mg/kg/day): 994+149 mg/dL
- effect on HDL levels (male Ldlr−/− mice [3]; male Ldlr−/− mice, same groups as FIG. 1): does not appear to affect HDL levels
- size and severity of the atherosclerotic lesion (intima/media ratio, aortic cholesterol content), expected [4]: significantly reduced
- solubility in water [5]: insoluble in water
- effect on atherogenic potential of a high-cholesterol diet (rabbits): ameliorated the atherogenic potential of a high-cholesterol diet
